Structures can show the parent of a compound that is named as a salt.
What was measured:
ROCK1 = ROCK1 (Homo sapiens, UniProt Q13464); experiment: ROCK1 kinase enzymatic activity (HTRF, STK2 substrate); type: biochemical; conditions: ROCK1 kinase reacted at room temperature for 20 minutes
Text: (§1) The kinase activity data was expressed by comparing the kinase activity of the test compound and that of the blank group (containing only DMSO), and the IC50 value was obtained by curve fitting using Prism software (GraphPad7.0).

ROCK2 = ROCK2 (Homo sapiens, UniProt O75116); experiment: ROCK2 kinase enzymatic activity (HTRF, STK2 substrate); type: biochemical; conditions: ROCK2 kinase reacted at room temperature for 30 minutes
Sequence of ROCK2 (O75116 whole entry): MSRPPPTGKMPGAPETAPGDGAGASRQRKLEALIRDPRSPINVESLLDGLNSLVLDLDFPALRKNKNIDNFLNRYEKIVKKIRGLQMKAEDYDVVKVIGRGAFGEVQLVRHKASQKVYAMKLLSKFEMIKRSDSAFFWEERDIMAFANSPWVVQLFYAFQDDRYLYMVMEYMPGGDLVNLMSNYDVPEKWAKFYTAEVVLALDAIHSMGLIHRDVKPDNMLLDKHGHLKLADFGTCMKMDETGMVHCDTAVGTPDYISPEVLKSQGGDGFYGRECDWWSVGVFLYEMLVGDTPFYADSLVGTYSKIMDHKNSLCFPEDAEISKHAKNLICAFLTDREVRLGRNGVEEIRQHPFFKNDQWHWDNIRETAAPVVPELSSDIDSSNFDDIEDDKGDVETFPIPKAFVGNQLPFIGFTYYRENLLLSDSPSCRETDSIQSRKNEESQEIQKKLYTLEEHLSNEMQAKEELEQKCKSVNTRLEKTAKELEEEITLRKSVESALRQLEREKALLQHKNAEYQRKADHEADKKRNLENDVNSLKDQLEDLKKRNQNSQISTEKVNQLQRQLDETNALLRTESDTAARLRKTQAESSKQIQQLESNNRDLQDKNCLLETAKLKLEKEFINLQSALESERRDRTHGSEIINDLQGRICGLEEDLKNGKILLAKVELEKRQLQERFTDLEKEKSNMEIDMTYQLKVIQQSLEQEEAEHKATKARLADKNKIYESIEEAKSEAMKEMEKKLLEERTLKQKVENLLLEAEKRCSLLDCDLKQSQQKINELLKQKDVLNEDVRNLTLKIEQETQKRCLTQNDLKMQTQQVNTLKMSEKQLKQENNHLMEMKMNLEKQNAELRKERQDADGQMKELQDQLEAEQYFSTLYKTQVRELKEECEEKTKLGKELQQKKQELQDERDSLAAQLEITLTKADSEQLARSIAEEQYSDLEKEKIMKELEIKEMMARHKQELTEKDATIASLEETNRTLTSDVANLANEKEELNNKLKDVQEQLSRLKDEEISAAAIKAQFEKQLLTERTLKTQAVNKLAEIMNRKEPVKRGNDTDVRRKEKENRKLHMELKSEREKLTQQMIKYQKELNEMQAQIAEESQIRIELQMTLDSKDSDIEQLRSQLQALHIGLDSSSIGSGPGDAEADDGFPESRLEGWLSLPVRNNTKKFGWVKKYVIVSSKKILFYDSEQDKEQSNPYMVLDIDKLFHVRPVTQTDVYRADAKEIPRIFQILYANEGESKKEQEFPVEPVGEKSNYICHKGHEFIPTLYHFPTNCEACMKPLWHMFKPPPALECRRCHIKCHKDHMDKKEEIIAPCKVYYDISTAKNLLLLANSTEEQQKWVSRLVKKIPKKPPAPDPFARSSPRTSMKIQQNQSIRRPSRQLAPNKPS
Text: as §1

[1] = system: phosphorylation of myosin light chain T18/S19; experiment: In Cell Western for phosphorylation of myosin light chain in A7r5 cells; type: cell-based; conditions: rat smooth muscle cell line A7r5, 1 hour with compound, phospho-MLC-T18/S19; read-out: cellular activity IC50
Text: The rat smooth muscle cell line A7r5 was used, and the A7r5 cell culture conditions were DMEM containing 10% FBS. Phspho-MLC-T18/S19 specific antibody and a second detection antibody were used to detect the phosphorylation level of myosin light chain by In Cell Western. Cells treated with positive compounds were used as positive controls, while the group without compounds but with compound solvents was used as negative controls. DRAQ5 stained cell nuclei were used as internal references. GraphPad Prism 7.0 software was used, and fitting was carried out by using a non-linear regression curve with varying slopes to determine the absolute IC50 value.
On the first day, A7r5 cells were resuspended in serum-free medium and seeded into 384 wells of PDL coated transparent black plates at a density of 5000 cells per well. Serum starvation culture was performed for 4 hours, and the cells were incubated with the compound in serum-free medium for 1 hour. 50 μL of 8% PFA (polyformaldehyde) was added to each well and fixed at room temperature for 1 hour. The liquid in the wells was discard and 90 μL of ice methanol was added to each well to permeabilize the cells at 4° C. for 1 hour. Then, PBST (0.1% Tween20-PBS) was added using an automatic separator to wash three times. After patting the plate for drying, 50 μL blocking solution was added to each well for sealing at room temperature for 1 hour. The phspho-MLC-T18/S19 specific antibody was diluted with the blocking solution at a ratio of 1:200. After adding 20 μL to each well, incubation was carried out overnight at 4° C. with a sealed film.
On the second day, the liquid in the wells was discarded and PBST was added using an automatic separator to wash the plate 5 times. After patting the plate for drying, the second detection antibody was diluted with blocking solution at a ratio of 1:800 and DRAQ5 at a ratio of 1:1000. After adding 20 μL to each well, incubation was carried out at room temperature for 1 hour. Then, the liquid in the wells was discarded and PBST was added using an automatic separator to wash the plate 3 times, followed by adding ddH2O to wash the plate 3 times. After patting the plate for drying, it was scanned using a LICOR Odyssey near-infrared imaging scanner.

Sequence of ROCK1 (Q13464 whole entry): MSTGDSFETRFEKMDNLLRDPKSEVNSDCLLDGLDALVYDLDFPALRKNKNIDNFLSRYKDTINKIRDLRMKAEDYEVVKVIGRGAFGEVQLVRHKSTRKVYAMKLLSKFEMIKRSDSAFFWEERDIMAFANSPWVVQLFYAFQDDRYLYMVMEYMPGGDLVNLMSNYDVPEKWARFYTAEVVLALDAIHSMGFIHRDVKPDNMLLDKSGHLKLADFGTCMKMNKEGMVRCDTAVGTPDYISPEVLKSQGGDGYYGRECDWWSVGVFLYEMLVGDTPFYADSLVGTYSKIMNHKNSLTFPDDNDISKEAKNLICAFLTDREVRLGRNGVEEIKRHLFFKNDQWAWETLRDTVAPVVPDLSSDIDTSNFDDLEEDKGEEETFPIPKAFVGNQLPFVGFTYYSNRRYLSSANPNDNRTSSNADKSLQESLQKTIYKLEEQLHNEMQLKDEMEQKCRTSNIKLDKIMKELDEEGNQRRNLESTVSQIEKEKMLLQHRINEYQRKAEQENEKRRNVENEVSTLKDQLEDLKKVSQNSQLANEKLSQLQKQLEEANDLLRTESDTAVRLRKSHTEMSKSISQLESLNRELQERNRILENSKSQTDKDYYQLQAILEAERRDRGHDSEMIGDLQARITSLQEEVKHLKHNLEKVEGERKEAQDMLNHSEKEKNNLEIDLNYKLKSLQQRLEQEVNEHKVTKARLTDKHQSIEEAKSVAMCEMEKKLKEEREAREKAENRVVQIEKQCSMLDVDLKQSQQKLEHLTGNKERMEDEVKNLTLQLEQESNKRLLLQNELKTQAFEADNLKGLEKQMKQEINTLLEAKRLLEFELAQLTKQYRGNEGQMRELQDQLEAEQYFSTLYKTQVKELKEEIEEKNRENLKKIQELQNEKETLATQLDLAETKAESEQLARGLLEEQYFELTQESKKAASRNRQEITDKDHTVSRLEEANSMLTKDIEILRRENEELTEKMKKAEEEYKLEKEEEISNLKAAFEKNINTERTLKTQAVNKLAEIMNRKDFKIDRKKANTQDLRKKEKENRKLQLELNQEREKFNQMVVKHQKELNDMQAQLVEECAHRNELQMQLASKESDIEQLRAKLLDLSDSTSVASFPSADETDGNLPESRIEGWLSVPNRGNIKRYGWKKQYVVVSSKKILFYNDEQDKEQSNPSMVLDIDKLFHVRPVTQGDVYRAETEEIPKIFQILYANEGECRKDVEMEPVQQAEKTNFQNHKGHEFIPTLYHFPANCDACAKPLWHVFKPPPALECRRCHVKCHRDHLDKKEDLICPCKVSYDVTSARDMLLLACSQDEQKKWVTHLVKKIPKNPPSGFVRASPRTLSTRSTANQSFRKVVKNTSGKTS

Compound	IC50 (ROCK1) [nM]	IC50 (ROCK2) [nM]	IC50 [1] [nM]
CN=S(C)(=O)N1CC(CC#N)(n2cc(-c3ncnc4[nH]ccc34)c(N)n2)C1 (stereo not drawn) [Example 37, 2-(3-(3-amino-4-(7H-pyrrolo[2,3-d]pyrimidin-4-yl)-1H-pyrazol-1-yl)-1-(N,S-dimethylsulfonylimino)azetidine-3-yl)acetonitrile]	< 50	< 50	1590
CCS(=N)(=O)N1CC(CC#N)(n2cc(-c3ncnc4[nH]ccc34)c(N)n2)C1 (stereo not drawn) [Example 38, 2-(3-(3-amino-4-(7H-pyrrolo[2,3-d]pyrimidin-4-yl)-1H-pyrazol-1-yl)-1-(ethylsulfonylimino)azetidine-3-yl)acetonitrile]	< 5	< 5	3130
N#CCC1(n2cc(-c3ncnc4[nH]ccc34)c(N)n2)CN(S(=O)(=O)NCC(F)(F)F)C1 [Example 40, 3-(3-amino-4-(7H-pyrrolo[2,3-d]pyrimidin-4-yl)-1H-pyrazol-1-yl)-3-(cyanomethyl)-N-(2,2,2-trifluoroethyl)azetidine-1l-sulfonamide]	< 10	< 10	1570
CCNS(=O)(=O)N1CC(CC#N)(n2cc(-c3ncnc4[nH]ccc34)c(N)n2)C1 [Example 41, 3-(3-amino-4-(7H-pyrrolo[2,3-d]pyrimidin-4-yl)-1H-pyrazol-1-yl)-3-(cyanomethyl)-N-ethylazetidine-1-sulfonamide]	< 10	< 10	91
N#CCC1(n2cc(-c3ncnc4[nH]ccc34)c(N)n2)CN(S(N)(=O)=O)C1 [Example 45, 3-(3-amino-4-(7H-pyrrolo[2,3-d]pyrimidin-4-yl)-1H-pyrazol-1-yl)-3-(cyanomethyl)azetidine-1-sulfonamide]	< 5	< 5	579
N#CCNS(=O)(=O)N1CC(CC#N)(n2cc(-c3ncnc4[nH]ccc34)c(N)n2)C1 [Example 50, 3-(3-amino-4-(7H-pyrrolo[2,3-d]pyrimidin-4-yl)-1H-pyrazol-1-yl)-N,3-bis(cyanomethyl)azetidine-1-sulfonamide]	< 10	< 10	98
N#CCC1(n2cc(-c3ncnc4[nH]ccc34)c(O)n2)CN(C(=O)NCC(F)(F)F)C1 [Example 55, 3-(cyanomethyl)-3-(3-hydroxyl-4-(7H-pyrrolo[2,3-d]pyrimidin-4-yl)-1H-pyrazol-1-yl)-N-(2,2,2-trifluoroethyl)azetidine-1-formamide]	< 50	> 100	> 10000
N#CCC1(n2cc(-c3ncnc4[nH]ccc34)c(C(N)=O)n2)CN(C(=O)NCC(F)(F)F)C1 [Example 61, 1-(3-(cyanomethyl)-1-((2,2,2-trifluoroethyl)carbamoyl)azetidine-3-yl)-4-(7H-pyrrolo[2,3-d]pyrimidin-4-yl)-1H-pyrazol-3-formamide]	> 100	> 100	> 10000
CNC(=O)c1nn(C2(CC#N)CN(S(=O)(=O)CC(F)(F)F)C2)cc1-c1ncnc2[nH]ccc12 [Example 62, 1-(3-(cyanomethyl)-1-((2,2,2-trifluoroethyl)sulfonyl)azetidine-3-yl)-N-methyl-4-(7H-pyrrolo[2,3-d]pyrimidin-4-yl)-1H-pyrazol-3-formamide]	> 100	> 100	> 10000
Cn1cc(Nc2cc(-c3cn(C4(CC#N)CN(S(C)(=O)=O)C4)nc3N)ncn2)cn1 [Example 69]	> 100	> 100	> 10000
CCS(=O)(=O)N1CC(CC#N)(n2cc(-c3cc(-c4cnn(C)c4)nc4ccnn34)c(N)n2)C1 [Example 82]	> 100	> 100	> 10000
C[C@H](N)CS(=O)(=O)N1CC(CC#N)(n2cc(-c3ncnc4[nH]ccc34)c(N)n2)C1 [Example 87, (S)-2-(3-(3-amino-4-(7H-pyrrolo[2,3-d]pyrimidin-4-yl)-1H-pyrazol-1-yl)-1-((2-aminopropyl)sulfonyl)azetidine-3-yl)acetonitrile trifluoroacetate salt]	< 5	< 5	678
C[C@@H](N)CS(=O)(=O)N1CC(CC#N)(n2cc(-c3ncnc4[nH]ccc34)c(N)n2)C1 [Example 88, (R)-2-(3-(3-amino-4-(7H-pyrrolo[2,3-d]pyrimidin-4-yl)-1H-pyrazol-1-yl)-1-((2-aminopropyl)sulfonyl)azetidine-3-yl)acetonitrile trifluoroacetate salt]	< 5	< 5	826

From patent publication US20260224571A1, “AZACYCLOALKANE COMPOUND AND PHARMACEUTICAL COMPOSITION, AND USE THEREOF” (Prime Gene Therapeutics Co., Ltd., priority 2023, published 2026)
